According to ChEMBL document CHEMBL5058564, “EUbOPEN Chemogenomics Library 2 (Incucyte)” (2022):

Experiments:
Format in all cases: toxicity, cell-based
[1] = tested on: HEK-293T; assay: Incucyte cell viability with HEK293T; details: human, 10 µM, compound concentration 10 uM
[2] = tested on: Fibroblast; assay: Incucyte cell viability with human fibroblast; details: 10 µM, compound concentration 10 uM
[3] = tested on: U2OS; assay: Incucyte cell viability with U2OS; details: human, 10 µM, compound concentration 10 uM
[4] = 0 h, replicate number 2, timepoint 0 hours
[5] = 6 h, replicate number 1, timepoint 6 hours
[6] = 12 h, replicate number 1, timepoint 12 hours
[7] = 12 h, replicate number 2, timepoint 12 hours
[8] = 18 h, replicate number 1, timepoint 18 hours
[9] = 18 h, replicate number 2, timepoint 18 hours
[10] = 24 h, replicate number 1, timepoint 24 hours
[11] = 24 h, replicate number 2, timepoint 24 hours
[12] = 0 h, replicate number 1, timepoint 0 hours
[13] = 6 h, replicate number 2, timepoint 6 hours
Note: unitless GR value; below 1 slowed growth and below 0 cell loss.

SMILES	Growth Rate [1, 4]	Growth Rate [1, 5]	Growth Rate [1, 6]	Growth Rate [1, 7]	Growth Rate [1, 8]	Growth Rate [1, 9]	Growth Rate [1, 10]	Growth Rate [1, 11]	Growth Rate [2, 12]	Growth Rate [2, 7]	Growth Rate [3, 12]	Growth Rate [3, 5]	Growth Rate [3, 6]	Growth Rate [3, 7]	Growth Rate [3, 8]	Growth Rate [3, 9]	Growth Rate [3, 10]	Growth Rate [3, 11]	Growth Rate [2, 4]	Growth Rate [3, 4]	further results
Cc1sc2c(c1C)C(c1ccc(Cl)cc1)=N[C@@H](CC(=O)NCCCCCCCCNC(=O)COc1cccc3c1C(=O)N(C1CCC(=O)NC1=O)C3=O)c1nnc(C)n1-2 (stereo not given in full)	0.68	0.68	0.13	0.04	0.02	-0.02	0.01	-0.06	0.46	-0.2	-0.31	0.38	0.7	0.65	0.5	0.72	0.4	0.7	–	–	Growth Rate [2, 5]: -0.54; Growth Rate [2, 13]: -0.38; Growth Rate [2, 6]: -0.48; Growth Rate [2, 8]: -0.47; Growth Rate [2, 9]: -0.01; Growth Rate [2, 10]: -0.37; Growth Rate [2, 11]: -0.03
CN(C)C(=O)N1CC[C@H](NC2=Nc3cc(F)ccc3N(CC(F)F)c3ccc(Cl)cc32)C1	0.7	0.94	0.82	0.77	0.89	0.79	0.83	0.88	–	–	–	–	–	0.92	–	0.92	–	–	-0.03	–	Growth Rate [1, 13]: 0.35; Growth Rate [2, 5]: -0.43; Growth Rate [2, 6]: 0.6; Growth Rate [2, 8]: 0.62; Growth Rate [2, 9]: 0.82; Growth Rate [2, 10]: 0.32; Growth Rate [2, 11]: 0.81
C[C@H]1[C@H](OC(=O)CCC(=O)O)O[C@@H]2O[C@@]3(C)CC[C@H]4[C@H](C)CC[C@@H]1[C@@]24OO3 [ARTESUNATE]	0.58	0.56	-0.23	-0.1	-0.07	-0.18	-0.08	-0.16	0.98	0.75	0.12	0.66	–	0.85	0.86	0.75	0.98	0.81	0.19	0.07	Growth Rate [2, 6]: 0.22; Growth Rate [2, 8]: -0.31; Growth Rate [2, 9]: 0.04; Growth Rate [2, 10]: -0.42; Growth Rate [2, 11]: -0.06; Growth Rate [3, 13]: 0.72
C[C@@H]1CC(=O)Nc2cccc(-c3ccc4c(c3)c(-c3cnn(C)c3)nn4C)c2N1	0.93	0.14	0.43	0.42	0.41	0.45	0.38	0.43	–	–	-0.4	0.24	0.53	–	0.7	–	0.85	–	–	–	Growth Rate [1, 13]: 0.26; Growth Rate [2, 5]: 0.21
Cc1ccc(Cn2nc(C(=O)N[C@@H]3C(C)(C)[C@@H]4CC[C@@]3(C)C4)cc2-c2ccc(Cl)c(C)c2)cc1	–	–	–	0.96	0.94	–	0.95	–	–	0.14	-1	–	0.92	0.74	–	0.82	0.86	0.74	–	–	Growth Rate [1, 13]: 0.75; Growth Rate [2, 5]: 0.46; Growth Rate [2, 13]: 0.01; Growth Rate [2, 6]: 0.76; Growth Rate [2, 8]: 0.78; Growth Rate [2, 10]: 0.72; Growth Rate [3, 13]: 0.89
CCC(=O)OCC(=O)[C@@]1(OC(=O)CC)[C@@H](C)C[C@H]2[C@@H]3CCC4=CC(=O)C=C[C@]4(C)[C@@]3(Cl)[C@@H](O)C[C@@]21C [BECLOMETHASONE DIPROPIONATE]	-0.33	0.91	0.61	0.8	0.62	0.78	0.65	0.83	-0.17	–	-0.25	0.73	0.81	0.85	0.8	0.81	0.78	0.9	-0.56	0.62	Growth Rate [1, 12]: 0.14
O=C1Nc2ccc(I)cc2/C1=C/c1cc(Br)c(O)c(Br)c1	0.11	–	–	–	0.97	–	0.91	–	-0.2	–	–	–	0.89	–	–	–	–	–	0.15	-0.15	Growth Rate [1, 12]: -0.08
COC(=O)[C@H](CCCNC(=N)N)NC(=O)CCCc1c(-c2ccccc2)[nH]c2c(F)cc(F)cc12.O=C(O)C(F)(F)F	0.81	0.68	0.53	0.32	0.64	0.5	0.66	0.53	0.79	0.65	-0.03	0.46	0.64	–	0.8	–	–	–	0.86	–	Growth Rate [1, 12]: 0.87; Growth Rate [1, 13]: 0.4; Growth Rate [2, 13]: 0.39; Growth Rate [2, 9]: 0.38; Growth Rate [2, 11]: 0.46
C[C@@H](c1ccc(F)cc1)n1nnc2cnc3ccc(-c4ccc5ocnc5c4)cc3c21	–	-0.12	-0.11	-0.14	0.09	0.07	0.23	0.21	0.92	–	-0.51	–	–	0.94	0.75	0.83	0.51	0.82	–	0.33	Growth Rate [1, 13]: -0.31
COc1ccc(C(=O)N2CCN(C(=O)/C=C/c3ccc(Br)cc3)CC2)cc1	–	0.09	–	–	–	–	–	–	–	0.95	–	-0.38	0.8	0.72	0.64	0.63	0.88	0.73	0.76	–	Growth Rate [2, 5]: -0.51; Growth Rate [2, 6]: 0.15; Growth Rate [2, 8]: 0.44; Growth Rate [2, 9]: 0.79; Growth Rate [2, 10]: 0.08; Growth Rate [3, 13]: 0.66
COc1cc(Nc2ncc3c(n2)-c2ccc(Cl)cc2C(c2c(F)cccc2OC)=NC3)ccc1C(=O)O [ALISERTIB]	–	-0.03	0.13	0	0.39	0.33	0.38	0.26	–	-0.17	-0.14	0.83	0.43	0.54	0.19	0.45	0.39	0.65	0.68	0.41	Growth Rate [1, 13]: 0.03; Growth Rate [2, 5]: -0.97; Growth Rate [2, 13]: -0.09; Growth Rate [2, 6]: -0.79; Growth Rate [2, 8]: -0.64; Growth Rate [2, 9]: -0.13; Growth Rate [2, 10]: -0.39; Growth Rate [2, 11]: -0.09
O=C(O)c1nc2ccccc2c2[nH]c3c(I)cccc3c12	0.84	–	–	0.75	–	0.78	–	–	-0.96	–	–	0.56	–	0.85	0.93	0.85	–	0.91	0.92	-1	Growth Rate [1, 12]: 0.01
O=C(O)c1cccc(/C=C2/C[C@@H]3[C@@H](/C=C/[C@H](O)C4CCCCC4)[C@H](O)C[C@@H]3O2)c1	-0.26	–	–	–	0.98	1	0.9	0.92	-0.51	0.77	–	0.65	0.59	0.94	0.9	–	–	–	-0.06	0.48	Growth Rate [1, 12]: -0.12; Growth Rate [2, 13]: 0.96; Growth Rate [2, 11]: 0.89; Growth Rate [3, 13]: 0.71
